Data published in patent US10246453B2, “Benzenesulfonamide compounds and their use as therapeutic agents” (Xenon Pharmaceuticals Inc., priority 2016, dated 2019).
Counter-ions that a name gives are not always drawn. Like-named read-outs stand apart in the source and are kept apart here.

Tests used:
NaV1.5 [1] = molecular target: T1, NaV1.5 (Homo sapiens (Human), UniProt Q14524); assay: in vitro; settings: pH 7.4
NaV1.1 [2] = molecular target: T2, NaV1.1 (Homo sapiens (Human), UniProt P35498); assay: Sodium Influx Assay (Flux), NaV1.1; format: cell-based; settings: Trex HEK293 cells, ANG2 dye; arithmetic mean
NaV1.6 [3] = molecular target: T3, NaV1.6 (Homo sapiens (Human), UniProt Q9UQD0); assay: Electrophysiological Assay (EP), patch voltage clamp, NaV1.6; format: cell-based; settings: HEK-293 cells, whole-cell patch clamp, inactivated state; arithmetic mean
T3 sequence (Q9UQD0 whole entry): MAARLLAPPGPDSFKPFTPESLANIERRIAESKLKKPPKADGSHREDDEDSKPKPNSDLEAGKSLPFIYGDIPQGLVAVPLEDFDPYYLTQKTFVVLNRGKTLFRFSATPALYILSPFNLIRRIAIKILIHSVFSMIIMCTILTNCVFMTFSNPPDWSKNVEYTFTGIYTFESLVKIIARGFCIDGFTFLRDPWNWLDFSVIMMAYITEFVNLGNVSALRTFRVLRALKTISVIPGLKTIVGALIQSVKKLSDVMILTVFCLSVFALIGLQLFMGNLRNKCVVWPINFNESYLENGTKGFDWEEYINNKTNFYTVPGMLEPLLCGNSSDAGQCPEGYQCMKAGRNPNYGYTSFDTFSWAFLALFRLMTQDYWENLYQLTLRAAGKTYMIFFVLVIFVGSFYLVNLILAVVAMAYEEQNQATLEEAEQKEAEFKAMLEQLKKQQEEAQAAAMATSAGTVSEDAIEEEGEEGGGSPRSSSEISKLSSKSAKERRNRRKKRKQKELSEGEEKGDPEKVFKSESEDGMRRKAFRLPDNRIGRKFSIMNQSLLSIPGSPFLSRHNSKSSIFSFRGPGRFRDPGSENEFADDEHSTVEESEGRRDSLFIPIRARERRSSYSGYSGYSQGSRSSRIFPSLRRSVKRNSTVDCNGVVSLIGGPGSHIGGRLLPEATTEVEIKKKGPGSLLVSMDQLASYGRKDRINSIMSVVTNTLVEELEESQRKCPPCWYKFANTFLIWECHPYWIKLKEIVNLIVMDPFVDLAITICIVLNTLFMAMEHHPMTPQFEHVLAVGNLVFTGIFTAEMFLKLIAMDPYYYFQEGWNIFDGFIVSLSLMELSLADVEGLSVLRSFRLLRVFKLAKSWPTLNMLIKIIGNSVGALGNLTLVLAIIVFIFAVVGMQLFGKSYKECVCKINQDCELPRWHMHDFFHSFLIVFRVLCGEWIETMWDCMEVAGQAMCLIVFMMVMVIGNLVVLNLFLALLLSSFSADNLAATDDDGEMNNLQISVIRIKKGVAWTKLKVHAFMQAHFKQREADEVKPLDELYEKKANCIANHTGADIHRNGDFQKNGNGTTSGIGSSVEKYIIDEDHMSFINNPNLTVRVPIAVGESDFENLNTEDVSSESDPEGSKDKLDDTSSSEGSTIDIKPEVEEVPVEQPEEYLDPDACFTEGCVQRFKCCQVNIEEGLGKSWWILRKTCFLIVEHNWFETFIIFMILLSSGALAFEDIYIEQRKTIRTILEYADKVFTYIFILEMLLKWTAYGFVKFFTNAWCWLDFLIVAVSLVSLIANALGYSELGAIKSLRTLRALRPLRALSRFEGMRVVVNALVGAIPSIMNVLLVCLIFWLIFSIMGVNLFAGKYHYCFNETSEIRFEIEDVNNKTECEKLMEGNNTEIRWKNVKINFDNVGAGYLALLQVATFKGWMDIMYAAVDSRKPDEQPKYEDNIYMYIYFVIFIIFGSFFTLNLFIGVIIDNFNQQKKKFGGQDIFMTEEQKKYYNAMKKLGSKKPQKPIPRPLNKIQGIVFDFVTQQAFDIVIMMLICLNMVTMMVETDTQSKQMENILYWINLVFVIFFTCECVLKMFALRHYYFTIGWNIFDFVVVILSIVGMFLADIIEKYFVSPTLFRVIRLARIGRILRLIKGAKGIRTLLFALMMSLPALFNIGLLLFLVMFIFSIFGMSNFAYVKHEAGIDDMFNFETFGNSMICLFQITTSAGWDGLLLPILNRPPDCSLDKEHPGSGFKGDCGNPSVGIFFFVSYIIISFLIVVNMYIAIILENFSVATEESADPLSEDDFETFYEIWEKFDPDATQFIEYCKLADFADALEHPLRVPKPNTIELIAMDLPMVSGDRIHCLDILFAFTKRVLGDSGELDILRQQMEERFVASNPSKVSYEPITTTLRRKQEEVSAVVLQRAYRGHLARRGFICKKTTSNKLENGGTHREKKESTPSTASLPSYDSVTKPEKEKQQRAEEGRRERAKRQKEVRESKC

NaV1.1 [4] = molecular target: T2, NaV1.1; assay: Electrophysiological Assay (EP), patch voltage clamp, NaV1.1; format: cell-based; settings: HEK-293 cells, whole-cell patch clamp, inactivated state; arithmetic mean
NaV1.5 [5] = molecular target: T1, NaV1.5
NaV1.6 [6] = molecular target: T3, NaV1.6; assay: Sodium Influx Assay (Flux), NaV1.6
NaV1.5 [7] = molecular target: T1, NaV1.5; assay: Electrophysiological Assay (EP), patch voltage clamp, NaV1.5; format: cell-based; settings: HEK-293 cells, whole-cell patch clamp, inactivated state; arithmetic mean
Experimental: Sodium currents were measured using the patch clamp technique in the whole-cell configuration using either a PatchXpress automated voltage clamp or manually using an Axopatch 200B (Axon Instruments) or Model 2400 (A-M systems) amplifier.
In some studies, the external sodium was reduced by equimolar replacement with choline. […] All recordings were performed at ambient temperature in a bath chamber with a volume of 150 μL. Control sodium currents were measured in 0.5% DMSO. Controls and representative compounds of the invention were applied to the recording chamber through a 4-pinch or 8-pinch valve bath perfusion system manufactured by ALA Scientific Instruments.
Series resistance compensation was applied (60-80%). […] All statistics in this study are given as mean±SD.
The membrane potential was maintained at a voltage where inactivation of the channel is complete. The voltage is then stepped back to a very negative (Vhold=−150 mV) voltage for 20 ms and then a test pulse is applied to quantify the compound block. […] The percent decrease in sodium current following wash-on of compound was taken as the percent block of sodium channels.

NaV1.5 [8] = molecular target: T1, NaV1.5; assay: Sodium Influx Assay (Flux), NaV1.5; settings: read-out: Flux NaV1.5 IC50; Trex HEK293 cells, ANG2 dye; arithmetic mean
NaV1.5 [9] = molecular target: T1, NaV1.5; assay: cell-based
[10] = read-out: Flux NaV1.6 IC50, Trex HEK293 cells, ANG2 dye, arithmetic mean

T1 sequence (Q14524 other isoform, or with tags, fused parts or gaps): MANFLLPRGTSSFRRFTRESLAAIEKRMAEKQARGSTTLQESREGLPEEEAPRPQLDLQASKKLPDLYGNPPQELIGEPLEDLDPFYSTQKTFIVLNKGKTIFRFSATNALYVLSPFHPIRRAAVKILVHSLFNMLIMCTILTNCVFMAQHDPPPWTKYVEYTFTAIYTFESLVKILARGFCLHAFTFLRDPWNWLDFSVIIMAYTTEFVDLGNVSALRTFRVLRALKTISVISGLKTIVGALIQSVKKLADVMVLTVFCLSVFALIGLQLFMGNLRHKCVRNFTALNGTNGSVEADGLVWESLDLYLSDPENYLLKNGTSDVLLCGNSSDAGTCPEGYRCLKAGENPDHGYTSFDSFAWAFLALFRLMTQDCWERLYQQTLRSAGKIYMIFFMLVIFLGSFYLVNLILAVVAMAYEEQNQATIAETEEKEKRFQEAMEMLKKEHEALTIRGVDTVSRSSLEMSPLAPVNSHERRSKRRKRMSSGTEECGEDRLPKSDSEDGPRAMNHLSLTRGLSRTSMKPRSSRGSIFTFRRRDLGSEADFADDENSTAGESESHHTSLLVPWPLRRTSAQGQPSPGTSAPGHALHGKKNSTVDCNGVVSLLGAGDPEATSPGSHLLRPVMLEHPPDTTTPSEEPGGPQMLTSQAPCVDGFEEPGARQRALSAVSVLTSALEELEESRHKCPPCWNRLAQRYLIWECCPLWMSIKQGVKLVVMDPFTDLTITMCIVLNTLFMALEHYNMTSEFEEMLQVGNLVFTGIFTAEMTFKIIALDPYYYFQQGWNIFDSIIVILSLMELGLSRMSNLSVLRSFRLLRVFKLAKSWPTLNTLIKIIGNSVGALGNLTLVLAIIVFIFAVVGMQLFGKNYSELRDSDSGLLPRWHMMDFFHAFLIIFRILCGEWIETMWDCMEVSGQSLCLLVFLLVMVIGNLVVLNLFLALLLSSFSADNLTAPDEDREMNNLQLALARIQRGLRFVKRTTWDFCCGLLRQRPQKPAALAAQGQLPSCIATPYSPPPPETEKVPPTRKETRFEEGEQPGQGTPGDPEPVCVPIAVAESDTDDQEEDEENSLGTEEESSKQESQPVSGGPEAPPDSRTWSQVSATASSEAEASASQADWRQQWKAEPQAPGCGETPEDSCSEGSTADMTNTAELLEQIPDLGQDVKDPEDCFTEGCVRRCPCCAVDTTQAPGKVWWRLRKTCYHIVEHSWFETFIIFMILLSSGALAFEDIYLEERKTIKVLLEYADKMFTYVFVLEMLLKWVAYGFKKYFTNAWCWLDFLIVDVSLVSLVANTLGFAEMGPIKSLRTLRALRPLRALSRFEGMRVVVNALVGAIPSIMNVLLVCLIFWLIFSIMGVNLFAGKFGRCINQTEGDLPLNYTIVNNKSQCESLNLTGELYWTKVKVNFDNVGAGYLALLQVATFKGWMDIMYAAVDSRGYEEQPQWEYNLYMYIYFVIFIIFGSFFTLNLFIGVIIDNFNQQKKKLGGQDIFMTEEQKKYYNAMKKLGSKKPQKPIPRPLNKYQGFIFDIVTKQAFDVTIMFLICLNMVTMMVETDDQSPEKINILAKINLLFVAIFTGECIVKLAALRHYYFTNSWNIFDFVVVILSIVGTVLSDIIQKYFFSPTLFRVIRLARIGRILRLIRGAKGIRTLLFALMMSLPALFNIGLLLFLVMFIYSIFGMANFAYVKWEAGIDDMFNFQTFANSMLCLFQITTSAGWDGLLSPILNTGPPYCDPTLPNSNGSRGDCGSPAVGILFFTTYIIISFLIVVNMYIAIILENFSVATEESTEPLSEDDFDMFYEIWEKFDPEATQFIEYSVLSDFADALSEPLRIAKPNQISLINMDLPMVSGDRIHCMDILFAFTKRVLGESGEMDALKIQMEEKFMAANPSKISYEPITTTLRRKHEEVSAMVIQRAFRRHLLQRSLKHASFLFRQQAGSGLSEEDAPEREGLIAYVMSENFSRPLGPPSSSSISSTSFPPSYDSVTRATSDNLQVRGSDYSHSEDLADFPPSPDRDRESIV

SMILES | IC50 at 1 h (NaV1.5 [1]) [µM] | IC50 (NaV1.1 [2]) [µM] | IC50 (NaV1.6 [3]) [µM] | IC50 (NaV1.1 [4]) [µM] | IC50 (NaV1.5 [5]) [µM] | IC50 (NaV1.6 [6]; [10]) [µM] | IC50 (NaV1.5 [7]) [µM] | IC50 (NaV1.5 [8]) [µM] | IC50 (NaV1.5 [9]) [µM] | IC50 (NaV1.6 [6]) [µM]
C[C@@H]1[C@H](N(C)c2cc(F)c(S(=O)(=O)Nc3cscn3)cc2Cl)CCN1Cc1ccccc1 (racemic) [Example 309, rac-4-(((2R,3R)-1-benzyl-2-methylpyrrolidin-3-yl)(methyl)amino)-5-chloro-2-fluoro-N-(thiazol-4-yl)benzenesulfonamide] | 7.35 |  |  |  |  |  |  |  |  | 
O=S(=O)(Nc1nccs1)c1cc(Cl)c(O[C@@H]2C[C@H]3CC[C@@H](C2)N3Cc2ccccc2)cc1F [Example 17, 4-(((1R,3s,5S)-8-benzyl-8-azabicyclo[3.2.1]octan-3-yl)oxy)-5-chloro-2-fluoro-N-(thiazol-2-yl)benzenesulfonamide] |  | > 30 | 0.155 | > 10 | > 30 | 0.392 |  |  |  | 
CN(c1ccc(S(=O)(=O)Nc2ncns2)cc1Cl)[C@H]1CCN(Cc2ccccc2)C1 [Example 29, (S)-4-((1-benzylpyrrolidin-3-yl)(methyl)amino)-3-chloro-N-(1,2,4-thiadiazol-5-yl)benzenesulfonamide hydrochloride salt] |  | > 30 | 0.06 | > 10 |  | 0.244 | > 10 | 29.5 |  | 
CN(c1cc(F)c(S(=O)(=O)Nc2cscn2)cc1Cl)[C@H]1CCN(Cc2ccccc2)C1 [Example 38, (S)-4-((1-benzylpyrrolidin-3-yl)(methyl)amino)-5-chloro-2-fluoro-N-(thiazol-4-yl)benzenesulfonamide 2,2,2-trifluoroacetate] |  | 17.9 | 0.803 | > 10 |  | 1.94 | > 30 | 26.3 |  | 
CN(c1cc(F)c(S(=O)(=O)Nc2nccs2)cc1Cl)C1CCN(Cc2ccccc2)CC1 [Example 53, 4-((1-benzylpiperidin-4-yl)(methyl)amino)-5-chloro-2-fluoro-N-(thiazol-2-yl)benzenesulfonamide] |  | 7.41 |  |  | 24.5 | 0.601 |  |  |  | 
O=S(=O)(Nc1nccs1)c1ccc(N[C@@H]2CCN(Cc3ccccc3F)C2)c(Cl)c1 [Example 71, (R)-3-chloro-4-((1-(2-fluorobenzyl)pyrrolidin-3-yl)amino)-N-(thiazol-2-yl)benzenesulfonamide] |  | 3.35 |  |  |  | 1.26 | 0.863 | 9.27 |  | 
Cc1c(N(C)[C@H]2CCN(Cc3ccccc3)C2)cc(F)c(S(=O)(=O)Nc2cscn2)c1F [Example 103, (S)-4-((1-benzylpyrrolidin-3-yl)(methyl)amino)-2,6-difluoro-3-methyl-N-(thiazol-4-yl)benzenesulfonamide 2,2,2-trifluoroacetate] |  | 28.5 | 0.017 | 40.9 |  | 0.061 | > 10 | 28.2 |  | 
CN(c1ccc(S(=O)(=O)Nc2cscn2)cc1Cl)[C@H]1CCN(Cc2cc(Cl)ccc2F)C1 [Example 254, (S)-3-chloro-4-((1-(5-chloro-2-fluorobenzyl)pyrrolidin-3-yl)(methyl)amino)-N-(thiazol-4-yl)benzenesulfonamide formate] |  | 2.32 |  |  |  | 1.16 | 17 | 0.962 |  | 
C[C@H](c1ccccc1)N1CCC(N(C)c2cc(F)c(S(=O)(=O)Nc3cscn3)cc2Cl)CC1 [Example 280, (R)-5-chloro-2-fluoro-4-(methyl(1-(1-phenylethyl)piperidin-4-yl)amino)-N-(thiazol-4-yl)benzenesulfonamide formate] |  | 17.4 |  |  | 27.1 | 0.228 |  |  |  | 
Cc1cc(S(=O)(=O)Nc2cscn2)c(F)cc1N(C)C1CCN([C@H](C)c2ccccc2)CC1 [Example 281, (R)-2-fluoro-5-methyl-4-(methyl(1-(1-phenylethyl)piperidin-4-yl)amino)-N-(thiazol-4-yl)benzenesulfonamide 2,2,2-trifluoroacetate] |  | 14.6 |  |  | 13.1 | 0.021 |  |  |  | 
Cc1cccc(CN2CC[C@H](N(C)c3cc(F)c(S(=O)(=O)Nc4ncns4)c(F)c3Cl)C2)n1 [Example 297, (S)-3-chloro-2,6-difluoro-4-(methyl (1-((6-methylpyridin-2-yl)methyl)pyrrolidin-3-yl)amino)-N-(1,2,4-thiadiazol-5-yl)benzenesulfonamide 2,2,2-trifluoroacetate] |  | > 30 | 0.012 |  |  |  |  |  | > 30 | 0.062
Cc1c(N(C)[C@H]2CCN(Cc3ccccc3)C2)cc(F)c(S(=O)(=O)Nc2cccc(F)n2)c1F [Example 298, (S)-4-((1-benzylpyrrolidin-3-yl)(methyl)amino)-2,6-difluoro-N-(6-fluoropyridin-2-yl)-3-methylbenzenesulfonamide formate] |  | 26 | 0.043 | > 10 |  | 0.079 | > 10 | > 30 |  | 
O=S(=O)(Nc1cscn1)c1ccc(O[C@@H]2C[C@H]3CC[C@@H](C2)N3Cc2cc(Cl)ccc2F)c(Cl)c1 [Example 316, 3-chloro-4-(((1R,3s,5S)-8-(5-chloro-2-fluorobenzyl)-8-azabicyclo[3.2.1]octan-3-yl)oxy)-N-(thiazol-4-yl)benzenesulfonamide formate] |  | 2.8 |  |  | 5.09 | 3.9 |  |  |  | 
O=S(=O)(Nc1cscn1)c1ccc(O[C@@H]2C[C@H]3CC[C@@H](C2)N3Cc2ccccc2)c(Cl)c1 [Example 318, 4-(((1R,3s,5S)-8-benzyl-8-azabicyclo[3.2.1]octan-3-yl)oxy)-3-chloro-N-(thiazol-4-yl)benzenesulfonamide] |  | 13.8 | 1.15 | > 10 | 17.4 | 5.46 |  |  |  | 
O=S(=O)(Nc1cscn1)c1ccc(O[C@@H]2C[C@H]3CC[C@@H](C2)N3Cc2ccc(F)c(Cl)c2)c(Cl)c1 [Example 319, 3-chloro-4-(((1R,3s,5S)-8-(3-chloro-4-fluorobenzyl)-8-azabicyclo[3.2.1]octan-3-yl)oxy)-N-(thiazol-4-yl)benzenesulfonamide formate] |  | 3.69 |  |  | 2.48 | 3.32 |  |  |  | 
